Tests used:
[1] = system: Lactobacillus casei ATCC 4646; assay: Acid production inhibition by aldehydes in product vehicles, broth-tube technique; assay type: cell-based; settings: 1 to 5 percent aldehyde
Procedure: (§1) Other in vitro evaluations utilized a broth tube analysis of representative anticaries aldehydes incorporated in the vehicles of this invention against cultures of acid producing microorganisms normally present in the mouth. Standard laboratory procedures were utilized throughout to evaluate the acid production inhibition and growth inhibition over the incubation time of up to 24 hours.
(a)Measured by broth-tube technique.
(§2) In formulating Tables XIII - XIX representative aldehydes having anticaries activity were selected from those tested as summarized in Tables I - XII and incorporated in seven representative types of products. The products included dextrose and sucrose syrups, obtained commercially in food grades, and compressed candy, hard candy, mouthwash, toothpaste and toothpowder. The five latter products also employed food grade and reagent grade ingredients. These products were formulated by well-known and representative recipes for each type of product. The products were formed in batches of approximately 1 pound or 1 liter and contained all their normal constitutents. Aliquots of each products were blended with one of each of the representative aldehydes selected except in the case of hard candy.
(§3) Aliquots of the aldehyde incorporating sugar syrups, confectioneries, and mouthwash formulations were added directly to assay flasks and mixed or dissolved as required. Aqueous extracts of the aldehyde incorporated in toothpaste and toothpowder were prepared and aliquots of the filtrate were added to the assay flasks.
(§4) The assay flasks contained the necessary components for a normal growth response from the organisms employed, Lactobacillus casei ATCC 4646, originally a human oral isolate, Streptococcus spp. K1-R, human caries isolate, and a mixed oral microbial population obtained fresh from saliva on the morning prior to the initiation of each assay incubation period. The assay flask medium was dissolved in distilled water in which was added an equal volume of filter sterilized human saliva to yield a 50 percent saliva-medium combination. The medium contained all normal ingredients such as yeast extract, proteose peptone number 3 (a proprietary formula of Difco Laboratories, Detroit, Michigan) monopotassium phosphate, Tween 80 (polyoxethylene sorbitan monoleate) and water, except a carbon source. This was supplied by the aliquot of the sucrose syrup, dextrose syrup, sucrose in the compressed candy tablet and sucrose in the hard candy product. In addition, an aliquot of sucrose solution concentrate was added to the assay flask as a carbon source for evaluation of mouthwash, toothpaste, and toothpowder vehicles.
(§5) The lower aldehydes such as glycolaldehyde, crystalline dimer; pyruvaldehyde, aqueous syrup; d,1-glyceraldehyde solution and crystalline dimer; and glutaraldehyde, employed as a 50 percent aqueous solution, are water soluble and were employed directly either as powders or aqueous solutions. The C8 to C12, longer chain aliphatic aldehydes, of which decyl and dodecyl (lauric) were selected as representative, are oil soluble and are prepared and added to the products as emulsions with four parts of Tween 20, polyoxethylene sorbitan monolaurate. The aldehyde concentrations in the products were randomly chosen between 1 to 5 percent by weight. Limits for the concentrations were selected to coincide with the data presented in Tables I - XII in order to verify that the anticaries activity of the aldehydes in the product vehicles tested was equivalent to the activity previously established for the aldehydes alone.

[2] = system: Lactobacillus casei ATCC 4646; assay: Growth inhibition by aldehydes in product vehicles, pour-plate technique; assay type: cell-based; settings: 1 to 5 percent aldehyde
Procedure: as §1
(§6) (b)Measured by pour-plate technique.
as §2, §3, §4, §5

[3] = system: Mixed human oral microorganisms; assay: as above; assay type: cell-based; settings: 1 to 5 percent aldehyde
Procedure: as §1, §6, §2, §3, §4, §5

Streptococcus spp. KI-R = assay: as above; assay type: cell-based; settings: 1 to 5 percent aldehyde
Procedure: as §1, §6, §2, §3, §4, §5

[4] = In vivo caries evaluation, laboratory animals (summary); settings: one percent level in diet
Text: (§7) Standard laboratory techniques were used to complie the data presented. In each case the aldehyde was incorporated into each specimen's food in a one percent, by weight, quantity, over a period of several weeks. In all cases, caries reduction was noted.
(§8) The aldehydes tested in vivo were pyruvaldehyde, d,1-glyceraldehyde, crystalline dimer, glycolaldehyde, octanaldehyde, nonanaldehyde, decanaldehyde, undecylenic aldehyde, and lauric aldehyde. The polyaldehydes tested were dialdehyde starch, dialdehyde starch 50 percent oxidized, dialdehyde starch 90 percent oxidized, and dialdehyde galactomannan gum.

oral microorganisms = assay: Acid production inhibition in vitro (summary); assay type: cell-based; settings: in words, summary of tables
Procedure: as §1

Streptococcus sp. FA-1 = assay: Acid production inhibition, broth-tube technique; settings: single agent
Text: (§9) The data was compiled through well-known broth tube analysis techniques.

Lactobacillus casei = assay: Acid production inhibition, broth-tube technique; settings: single agent
Text: as §9

[5] = In vivo caries evaluation, Osborne-Mendel strain 1 rat; design: species or system rat (Osborne-Mendel strain 1); Caries Score, Mean Incidence / Caries Score, Mean Extent: scale not given here; settings: Table II, 90 days
Text: as §7, §8
^(a) Agents were incorporated in the diet at a 1 percent level.

[6] = in compressed candy tablet, 2 h incubation
[7] = in compressed candy tablet, 5 h incubation
[8] = in compressed candy tablet, 24 h incubation
[9] = in dextrose syrup, 2 h incubation
[10] = in dextrose syrup, 5 h incubation
[11] = in dextrose syrup, 24 h incubation
[12] = in sucrose syrup, 2 h incubation
[13] = in sucrose syrup, 5 h incubation
[14] = in sucrose syrup, 24 h incubation
[15] = in tooth powder (aqueous extract), 2 h incubation
[16] = in tooth powder (aqueous extract), 5 h incubation
[17] = in tooth powder (aqueous extract), 24 h incubation
[18] = in toothpaste (aqueous extract), 2 h incubation
[19] = in toothpaste (aqueous extract), 5 h incubation
[20] = in toothpaste (aqueous extract), 24 h incubation
[21] = Student's test, 95 percent confidence limit

Compound: O=C[C@H](O)CO (racemic) [d,1-Glyceraldehyde]
- Acid Production Inhibition [1, 6]: 0 Per Cent
- Acid Production Inhibition [1, 7]: 0 Per Cent
- Acid Production Inhibition [1, 8]: 73 Per Cent
- Acid Production Inhibition [1, 9]: 57 Per Cent
- Acid Production Inhibition [1, 10]: 33 Per Cent
- Acid Production Inhibition [1, 11]: 89 Per Cent
- Acid Production Inhibition [1, 12]: 0 Per cent
- Acid Production Inhibition [1, 13]: 30 Per cent
- Acid Production Inhibition [1, 14]: 79 Per cent
- Acid Production Inhibition [1, 15]: 0 Per cent
- Acid Production Inhibition [1, 16]: 0 Per cent
- Acid Production Inhibition [1, 17]: 84 Per cent
- Acid Production Inhibition [1, 18]: 0 Per cent
- Acid Production Inhibition [1, 19]: 0 Per cent
- Acid Production Inhibition [1, 20]: 0 Per cent
- Growth Inhibition [2, 6]: N.S.
- Growth Inhibition [2, 7]: N.S.
- Growth Inhibition [2, 8]: 100 Per Cent
- Growth Inhibition [2, 9]: N.S.
- Growth Inhibition [2, 10]: N.S.
- Growth Inhibition [2, 11]: > 99.99 Per Cent
- Growth Inhibition [2, 12]: 0 Per cent
- Growth Inhibition [2, 13]: N.S.
- Growth Inhibition [2, 14]: 99 Per cent
- Growth Inhibition [2, 15]: N.S.
- Growth Inhibition [2, 16]: N.S.
- Growth Inhibition [2, 17]: 99.3 Per cent
- Growth Inhibition [2, 18]: N.S.
- Growth Inhibition [2, 19]: N.S.
- Growth Inhibition [2, 20]: 100 Per cent
- Growth Inhibition [3, 6]: 99.7 Per Cent
- Growth Inhibition [3, 7]: 99.99 Per Cent
- Growth Inhibition [3, 8]: N.S.
- Growth Inhibition [3, 9]: 97.5 Per Cent
- Growth Inhibition [3, 10]: > 99.99 Per Cent
- Growth Inhibition [3, 11]: 0 Per Cent
- Growth Inhibition ([3]; in mouthwash, 2 h incubation): 95.0 Per cent
- Growth Inhibition ([3]; in mouthwash, 5 h incubation): 99.98 Per cent
- Growth Inhibition ([3]; in mouthwash, 24 h incubation): N.S.
- Growth Inhibition [3, 12]: 96 Per cent
- Growth Inhibition [3, 13]: 99.6 Per cent
- Growth Inhibition [3, 14]: 0 Per cent
- Growth Inhibition [3, 15]: N.S.
- Growth Inhibition [3, 16]: 99.3 Per cent
- Growth Inhibition [3, 17]: N.S.
- Growth Inhibition [3, 18]: 97 Per cent
- Growth Inhibition [3, 19]: N.S.
- Growth Inhibition [3, 20]: 100 Per cent
- Growth Inhibition (Streptococcus spp. KI-R; [6]): 0 Per Cent
- Growth Inhibition (Streptococcus spp. KI-R; [7]): N.S.
- Growth Inhibition (Streptococcus spp. KI-R; [8]): N.S.
- Growth Inhibition (Streptococcus spp. KI-R; [9]): 98 Per Cent
- Growth Inhibition (Streptococcus spp. KI-R; [10]): > 99.99 Per Cent
- Growth Inhibition (Streptococcus spp. KI-R; [11]): > 100 Per Cent
- Growth Inhibition (Streptococcus spp. KI-R; in mouthwash, 2 h incubation): > 99.99 Per cent
- Growth Inhibition (Streptococcus spp. KI-R; in mouthwash, 5 h incubation): 99.99 Per cent
- Growth Inhibition (Streptococcus spp. KI-R; in mouthwash, 24 h incubation): 100 Per cent
- Growth Inhibition (Streptococcus spp. KI-R; [12]): 90 Per cent
- Growth Inhibition (Streptococcus spp. KI-R; [13]): 90 Per cent
- Growth Inhibition (Streptococcus spp. KI-R; [14]): 99 Per cent
- Growth Inhibition (Streptococcus spp. KI-R; [15]): 99.88 Per cent
- Growth Inhibition (Streptococcus spp. KI-R; [16]): 99.99 Per cent
- Growth Inhibition (Streptococcus spp. KI-R; [17]): 100 Per cent
- Growth Inhibition (Streptococcus spp. KI-R; [18]): N.S.
- Growth Inhibition (Streptococcus spp. KI-R; [19]): N.S.
- Growth Inhibition (Streptococcus spp. KI-R; [20]): 0 Per cent
- Anticaries effect in laboratory animals [4]: significant anticaries effects
- Acid Production Inhibition (oral microorganisms): excellent acid production inhibition
- Acid Production Inhibition (Streptococcus sp. FA-1; 0.01 percent): 4%
- Acid Production Inhibition (Streptococcus sp. FA-1; 0.015 percent): 10%
- Acid Production Inhibition (Streptococcus sp. FA-1; 0.02 percent): 21%
- Acid Production Inhibition (Lactobacillus casei; 0.02 percent): 11%
- Acid Production Inhibition (Lactobacillus casei; 0.03 percent): 17%
- Acid Production Inhibition (Lactobacillus casei; 0.04 percent): 22%

Compound: CCCCCCCCCC=O [Decanaldehyde]
- Caries Score, Mean Incidence ([5]; 1 percent in diet, RCD control 19.0 (octan-), 14.1 (nonan-), 17.6 (decan-), 22.3 (undecylenic)): 10.4
- Caries Score, Mean Extent ([5]; 1 percent in diet, RCD control 49.6 (octan-), 34.3 (nonan-), 46.0 (decan-), 54.6 (undecylenic)): 24.1
- Caries Extent Reduction, statistical evaluation [5, 21]: Significant
- Caries Incidence Reduction, statistical evaluation [5, 21]: Significant
- Acid Production Inhibition [1, 6]: 0 Per Cent
- Acid Production Inhibition [1, 7]: 67 Per Cent
- Acid Production Inhibition [1, 8]: 97 Per Cent
- Acid Production Inhibition [1, 9]: 67 Per Cent
- Acid Production Inhibition [1, 10]: 77 Per Cent
- Acid Production Inhibition [1, 11]: 96 Per Cent
- Acid Production Inhibition [1, 12]: 0 Per cent
- Acid Production Inhibition [1, 13]: 95 Per cent
- Acid Production Inhibition [1, 14]: 99 Per cent
- Acid Production Inhibition [1, 18]: 80 Per cent
- Acid Production Inhibition [1, 19]: 80 Per cent
- Acid Production Inhibition [1, 20]: 83 Per cent
- Growth Inhibition [2, 6]: 99.98 Per Cent
- Growth Inhibition [2, 7]: 100 Per Cent
- Growth Inhibition [2, 8]: 100 Per Cent
- Growth Inhibition [2, 9]: 99.7 Per Cent
- Growth Inhibition [2, 10]: 100 Per Cent
- Growth Inhibition [2, 11]: 100 Per Cent
- Growth Inhibition [2, 12]: 99.5 Per cent
- Growth Inhibition [2, 13]: > 99.9 Per cent
- Growth Inhibition [2, 14]: > 99.99 Per cent
- Growth Inhibition [2, 18]: 0 Per cent
- Growth Inhibition [2, 19]: N.S.
- Growth Inhibition [2, 20]: 0 Per cent
- Growth Inhibition [3, 6]: > 99.99 Per Cent
- Growth Inhibition [3, 7]: > 99.99 Per Cent
- Growth Inhibition [3, 8]: 100 Per Cent
- Growth Inhibition [3, 9]: > 99.99 Per Cent
- Growth Inhibition [3, 10]: 100 Per Cent
- Growth Inhibition [3, 11]: 100 Per Cent
- Growth Inhibition [3, 12]: > 99.99 Per cent
- Growth Inhibition [3, 13]: > 99.99 Per cent
- Growth Inhibition [3, 14]: N.S.
- Growth Inhibition [3, 18]: N.S.
- Growth Inhibition [3, 19]: N.S.
- Growth Inhibition [3, 20]: 0 Per cent
- Growth Inhibition (Streptococcus spp. KI-R; [6]): N.S.
- Growth Inhibition (Streptococcus spp. KI-R; [7]): N.S.
- Growth Inhibition (Streptococcus spp. KI-R; [8]): N.S.
- Growth Inhibition (Streptococcus spp. KI-R; [9]): 100 Per Cent
- Growth Inhibition (Streptococcus spp. KI-R; [10]): 100 Per Cent
- Growth Inhibition (Streptococcus spp. KI-R; [11]): 100 Per Cent
- Growth Inhibition (Streptococcus spp. KI-R; [12]): > 99.99 Per cent
- Growth Inhibition (Streptococcus spp. KI-R; [13]): > 99.99 Per cent
- Growth Inhibition (Streptococcus spp. KI-R; [14]): N.S.
- Growth Inhibition (Streptococcus spp. KI-R; [18]): 0 Per cent
- Growth Inhibition (Streptococcus spp. KI-R; [19]): N.S.
- Growth Inhibition (Streptococcus spp. KI-R; [20]): N.S.
- Anticaries effect in laboratory animals [4]: significant anticaries activity
